Source: PubChem BioAssay (NCI)
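How tested: cells in 96-well plates exposed to compound for 48 hours at five concentrations. GI50: concentration for 50% inhibition of growth. TGI denotes the concentration required for complete inhibition of growth.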

Experiments:
Experiment in all cases: DTP human tumour cell line panel, 48 h
[1] = system: OVCAR-3 ovarian
[2] = system: TK-10 renal
[3] = system: HCC-2998 colon
[4] = system: SK-MEL-28 melanoma
[5] = system: ACHN renal
[6] = system: SK-MEL-2 melanoma
[7] = system: K-562 leukemia
[8] = system: MOLT-4 leukemia
[9] = system: COLO 205 colon
[10] = system: SR leukemia

## C=CC(COC(c1ccccc1)(c1ccccc1)c1ccccc1)N(CC)CC (configuration not stated)
[1]
  GI50: 7.04 µM
  TGI: 20.3 µM
[2]
  GI50: 3.19 µM
  TGI: 10.8 µM
[3]
  GI50: 4.28 µM
  TGI: 16.4 µM
[4]
  GI50: 3.59 µM
  TGI: 11.8 µM
[5]
  GI50: 8.1 µM
  TGI: 23.9 µM
[6]
  GI50: 4.68 µM
  TGI: 13.9 µM
[7]
  GI50: 2.07 µM
  TGI: 5.86 µM
[8]
  GI50: 3.02 µM
  TGI: 11.6 µM
[9]
  GI50: 1.7 µM
  TGI: 3.4 µM
[10]
  GI50: 2.13 µM
  TGI: 5.29 µM

## COc1cc(-c2csc(NC(=O)Nc3cc(Cl)cc(Cl)c3)n2)cc(OC)c1OC
[1]
  GI50: 1.8 µM
  TGI: 3.26 µM
[2]
  GI50: 1.73 µM
  TGI: 3.16 µM
[3]
  GI50: 2.39 µM
  TGI: 5.55 µM
[4]
  GI50: 2.17 µM
  TGI: 5.43 µM
[5]
  GI50: 1.71 µM
  TGI: 3.15 µM
[6]
  GI50: 2.61 µM
  TGI: 7.97 µM
[7]
  GI50: 4.4 µM
  TGI: > 100 µM
[8]
  GI50: 3.9 µM
  TGI: > 100 µM
[9]
  GI50: 3.11 µM
  TGI: 11.4 µM
[10]
  GI50: 2 µM
  TGI: 6.61 µM

## O=C1OCC2=C1C(c1ccccc1)c1cc3c(cc1N2CCO)OCCO3 (configuration not stated)
[1]
  GI50: 0.132 µM
  TGI: 0.312 µM
[2]
  GI50: 1.27 µM
[3]
  GI50: 0.182 µM
  TGI: 0.722 µM
[4]
  GI50: 8.24 µM
  TGI: > 50 µM
[5]
  GI50: 0.493 µM
  TGI: > 50 µM
[6]
  GI50: 0.156 µM
  TGI: 0.432 µM
[7]
  GI50: 0.191 µM
  TGI: > 50 µM
[8]
  GI50: 0.236 µM
  TGI: > 10.4 µM
[9]
  GI50: 0.24 µM
  TGI: 0.978 µM
[10]
  GI50: 0.14 µM
  TGI: 2.57 µM

## Oc1ccc(N=Nc2ccccn2)c(O)c1
[1]
  GI50: 0.401 µM
  TGI: > 100 µM
[2]
  GI50: 0.661 µM
  TGI: > 100 µM
[3]
  GI50: 0.49 µM
  TGI: > 100 µM
[4]
  GI50: 1.66 µM
  TGI: > 100 µM
[5]
  GI50: 0.507 µM
  TGI: > 100 µM
[6]
  GI50: 7.44 µM
  TGI: > 100 µM
[7]
  GI50: 0.582 µM
  TGI: > 100 µM
[8]
  GI50: 0.42 µM
  TGI: > 100 µM
[9]
  GI50: 0.732 µM
  TGI: > 100 µM
[10]
  GI50: 0.723 µM
  TGI: > 100 µM

## COc1cccc2c1n([O-])c1cccc(OC)c1[n+]2=O
[1]
  GI50: 17.6 µM
  TGI: > 100 µM
[2]
  GI50: 24.3 µM
  TGI: > 100 µM
[3]
  GI50: 2.36 µM
  TGI: 11.6 µM
[5]
  GI50: 4.35 µM
  TGI: > 100 µM
[6]
  GI50: 17.8 µM
  TGI: > 100 µM
[7]
  GI50: 6.13 µM
  TGI: > 100 µM
[8]
  GI50: 4.97 µM
  TGI: > 100 µM
[9]
  GI50: 12.1 µM
  TGI: 28.5 µM
[10]
  GI50: 0.897 µM
  TGI: 9.36 µM

## CCN(CC)C(=S)[S][Bi]([S]C(=S)N(CC)CC)[S]C(=S)N(CC)CC
[1]
  GI50: 0.0525 µM
  TGI: 0.174 µM
[2]
  GI50: 0.197 µM
  TGI: 0.374 µM
[3]
  GI50: 1.6 µM
  TGI: 3.02 µM
[4]
  GI50: 0.218 µM
  TGI: 0.492 µM
[5]
  GI50: 0.226 µM
  TGI: 0.488 µM
[6]
  GI50: 0.3 µM
  TGI: 0.774 µM
[7]
  GI50: 0.123 µM
  TGI: > 31.6 µM
[8]
  GI50: 0.0945 µM
  TGI: 2.28 µM
[9]
  GI50: < 0.0208 µM
  TGI: 0.131 µM
[10]
  GI50: 0.0353 µM
  TGI: 23.4 µM

## CCCCCCCCCCCCCCCCCC(=O)Nc1ccn(C2OC(CO)C(O)C2O)c(=O)n1 (configuration not stated)
[1]
  TGI: 69.6 µM
[2]
  TGI: > 100 µM
[3]
  TGI: > 100 µM
[4]
  TGI: > 100 µM
[5]
  TGI: > 100 µM
[6]
  TGI: > 100 µM
[7]
  TGI: > 100 µM
[8]
  TGI: 23.1 µM
[9]
  TGI: > 100 µM
[10]
  TGI: 56.4 µM

## O=C(NC(=S)Nc1cc(Cl)ccc1O)c1cccc(Br)c1
[1]
  GI50: 4.72 µM
  TGI: 24.9 µM
[2]
  GI50: 17.1 µM
  TGI: 78.9 µM
[3]
  GI50: 13.6 µM
  TGI: > 100 µM
[4]
  GI50: 16.5 µM
  TGI: > 100 µM
[5]
  GI50: 6.85 µM
  TGI: > 100 µM
[6]
  GI50: 12.1 µM
  TGI: > 100 µM
[7]
  GI50: 4.94 µM
  TGI: > 100 µM
[8]
  GI50: 4.47 µM
  TGI: > 100 µM
[9]
  GI50: 34.1 µM
  TGI: > 100 µM
[10]
  GI50: 7.34 µM
  TGI: > 100 µM

## CC(C)(C)c1ccc(NS(=O)(=O)c2ccc3nc(NC(=O)c4cnccn4)[nH]c3c2)cc1
[1]
  GI50: 0.654 µM
  TGI: 3.03 µM
[2]
  GI50: 8.84 µM
  TGI: 23.4 µM
[3]
  GI50: 5.19 µM
  TGI: 18.9 µM
[4]
  GI50: 3.57 µM
  TGI: 17.5 µM
[5]
  GI50: 2.21 µM
  TGI: 7.63 µM
[6]
  GI50: 4.56 µM
  TGI: 19 µM
[7]
  GI50: 2.38 µM
  TGI: > 100 µM
[8]
  GI50: 5 µM
  TGI: 57.4 µM
[9]
  GI50: 4.1 µM
  TGI: 20.9 µM
[10]
  GI50: 0.68 µM
  TGI: > 100 µM

## Cc1cc(C(=O)c2ccccc2)c(C)c2c1[nH]c1ccc(Cl)cc12
[1]
  GI50: 0.0426 µM
  TGI: 9.8 µM
[2]
  GI50: 3.11 µM
  TGI: 31.3 µM
[3]
  GI50: 0.176 µM
  TGI: 8.14 µM
[4]
  GI50: 3.64 µM
  TGI: 72.3 µM
[5]
  GI50: 0.0669 µM
  TGI: 15.5 µM
[6]
  GI50: 0.0829 µM
  TGI: 29.2 µM
[7]
  GI50: 0.0348 µM
  TGI: > 100 µM
[8]
  GI50: 0.103 µM
  TGI: > 54.2 µM
[9]
  GI50: 0.102 µM
  TGI: 1.36 µM
[10]
  GI50: 0.0383 µM
  TGI: > 63.4 µM

## O=NN(CCCl)C(=O)NC1CCC(CC2CCC(NC(=O)N(CCCl)N=O)CC2)CC1 (configuration not stated)
[1]
  TGI: > 67.4 µM
[2]
  TGI: > 100 µM
[3]
  TGI: > 100 µM
[4]
  TGI: > 100 µM
[5]
  TGI: > 100 µM
[6]
  TGI: > 100 µM
[7]
  TGI: > 100 µM
[8]
  TGI: 47.8 µM
[9]
  TGI: > 88.1 µM
[10]
  TGI: 88.7 µM

## O=[N+]([O-])c1cccc2nccc(NCCCO)c12
[1]
  TGI: 35.3 µM
[2]
  TGI: 52.3 µM
[3]
  TGI: 26 µM
[4]
  TGI: 26.5 µM
[5]
  TGI: 53.5 µM
[6]
  TGI: 20.9 µM
[7]
  TGI: 49.3 µM
[8]
  TGI: 45.1 µM
[9]
  TGI: 15.8 µM
[10]
  TGI: 44.2 µM

## O=C1C(Cl)=C(Nc2cccc(C(F)(F)F)c2)C(=O)N1Cc1ccc(Cl)cc1
[1]
  GI50: 0.16 µM
  TGI: 5.76 µM
[2]
  GI50: 1.08 µM
  TGI: 19.3 µM
[3]
  GI50: 0.835 µM
  TGI: 18.8 µM
[4]
  GI50: 3.95 µM
  TGI: 23.6 µM
[5]
  GI50: 0.421 µM
  TGI: 15.1 µM
[6]
  GI50: 4.02 µM
  TGI: > 25.9 µM
[7]
  GI50: 1.33 µM
  TGI: > 100 µM
[8]
  GI50: 0.119 µM
  TGI: > 100 µM
[9]
  GI50: 0.867 µM
  TGI: 20.1 µM
[10]
  GI50: < 0.0219 µM
  TGI: > 65.3 µM

## CC1(C)C(=O)/C(=C\c2cccnc2)C[C@]2(C)[C@H]3CC[C@@H]4[C@@H](C(=O)/C=C/c5ccncc5)CC[C@@]4(C)[C@]3(C)CC[C@@H]12
[1]
  GI50: 1.7 µM
  TGI: 3.36 µM
[2]
  GI50: 2.7 µM
  TGI: 5.29 µM
[3]
  GI50: 2.1 µM
  TGI: 3.84 µM
[4]
  GI50: 1.98 µM
  TGI: 3.97 µM
[5]
  GI50: 1.75 µM
  TGI: 3.36 µM
[6]
  GI50: 1.93 µM
  TGI: 4.38 µM
[7]
  GI50: 1.2 µM
  TGI: > 100 µM
[8]
  GI50: 2.78 µM
  TGI: 10.4 µM
[9]
  GI50: 1.88 µM
  TGI: 3.87 µM
[10]
  GI50: 1.68 µM
  TGI: 9.81 µM
